Data published in ChEMBL document CHEMBL5257092, “Synthesis and biological evaluation of biaryl alkyl ethers as inhibitors of IDO1” (Bioorg Med Chem Lett, 2023).
pIC50: −log10 of the molar value.

Key:
[1] = molecular target: Cytochrome P450 3A4 (Homo sapiens, UniProt P08684); assay: Inhibition of human CYP3A4; type: ADME
[2] = Stability in dog liver microsomes assessed as half life; type: ADME, Canis lupus familiaris, Microsome
[3] = molecular target: Cytochrome P450 2D6 (Homo sapiens, UniProt P10635); assay: Inhibition of human CYP2D6; type: ADME
[4] = molecular target: Tryptophan 2,3-dioxygenase (Homo sapiens, UniProt P48775); assay: Inhibition of TDO (unknown origin) expressed in HEK cells; type: cell-based
[5] = Stability in monkey liver microsomes assessed as half life; type: ADME, Macaca mulatta, Microsome; settings: rhesus monkey
[6] = Metabolic stability in rat liver microsomes assessed as compound remaining at 0.5 uM incubated for 10 mins relative to control; type: ADME, Microsome; settings: for remaining at 10 min, 0.5 µM: liver microsomes, read-out: Stability; for Stability: microsomes, 10 min, 0.5 µM
[7] = Stability in human liver microsomes assessed as half life; type: ADME, Microsome
[8] = molecular target: T1, Cytochrome P450 2C8 (Homo sapiens, UniProt P10632); assay: Inhibition of human CYP2C8; type: ADME
T1 sequence (P10632 whole entry): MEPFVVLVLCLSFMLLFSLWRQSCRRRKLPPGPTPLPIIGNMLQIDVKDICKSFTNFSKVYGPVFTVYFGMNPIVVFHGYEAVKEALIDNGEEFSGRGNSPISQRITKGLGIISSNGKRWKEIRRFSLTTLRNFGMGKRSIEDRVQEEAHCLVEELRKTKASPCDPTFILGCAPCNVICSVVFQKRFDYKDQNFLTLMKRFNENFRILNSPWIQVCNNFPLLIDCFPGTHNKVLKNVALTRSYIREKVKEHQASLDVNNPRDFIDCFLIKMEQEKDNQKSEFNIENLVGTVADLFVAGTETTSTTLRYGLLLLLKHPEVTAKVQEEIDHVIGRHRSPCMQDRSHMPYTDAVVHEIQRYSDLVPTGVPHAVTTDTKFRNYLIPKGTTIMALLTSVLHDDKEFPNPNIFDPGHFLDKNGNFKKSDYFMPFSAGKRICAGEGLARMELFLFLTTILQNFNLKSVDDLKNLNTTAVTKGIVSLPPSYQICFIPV

[9] = molecular target: T2, Cytochrome P450 1A2 (Homo sapiens, UniProt P05177); assay: Inhibition of human CYP1A2; type: ADME
T2 sequence (P05177 whole entry): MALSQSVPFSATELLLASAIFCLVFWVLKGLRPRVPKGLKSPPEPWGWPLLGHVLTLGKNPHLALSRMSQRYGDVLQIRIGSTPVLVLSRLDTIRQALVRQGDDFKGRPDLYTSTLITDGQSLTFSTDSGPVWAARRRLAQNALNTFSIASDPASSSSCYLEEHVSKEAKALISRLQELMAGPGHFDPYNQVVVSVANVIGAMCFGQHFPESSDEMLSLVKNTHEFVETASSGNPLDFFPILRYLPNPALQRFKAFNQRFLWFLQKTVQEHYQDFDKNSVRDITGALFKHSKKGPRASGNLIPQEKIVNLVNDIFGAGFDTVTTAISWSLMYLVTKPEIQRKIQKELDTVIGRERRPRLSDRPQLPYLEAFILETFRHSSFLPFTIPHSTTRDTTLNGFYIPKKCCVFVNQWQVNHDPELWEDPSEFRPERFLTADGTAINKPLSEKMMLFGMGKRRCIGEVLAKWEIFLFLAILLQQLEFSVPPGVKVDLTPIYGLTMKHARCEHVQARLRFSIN

[10] = Metabolic stability in human liver microsomes assessed as compound remaining at 0.5 uM incubated for 10 mins relative to control; type: ADME, Microsome; settings: for remaining at 10 min, 0.5 µM: liver microsomes, read-out: Stability; for Stability: microsomes, 10 min, 0.5 µM
[11] = molecular target: T3, Cytochrome P450 2C9 (Homo sapiens, UniProt P11712); assay: Inhibition of CYP2C9 (unknown origin); type: ADME
[12] = molecular target: T3, Cytochrome P450 2C9; assay: Inhibition of human CYP2C9; type: ADME
[13] = molecular target: T4, Cytochrome P450 2C19 (Homo sapiens, UniProt P33261); assay: Inhibition of human CYP2C19; type: ADME
[14] = Stability in mouse liver microsomes assessed as half life; type: ADME, Microsome
[15] = molecular target: Indoleamine 2,3-dioxygenase 1 (Homo sapiens, UniProt P14902); assay: Inhibition of IDO1 (unknown origin) expressed in human HeLa cells; type: cell-based
[16] = Metabolic stability in mouse liver microsomes assessed as compound remaining at 0.5 uM incubated for 10 mins relative to control; type: ADME, Microsome; settings: for remaining at 10 min, 0.5 µM: liver microsomes, read-out: Stability; for Stability: microsomes, 10 min, 0.5 µM
[17] = molecular target: T5, Cytochrome P450 2B6 (Homo sapiens, UniProt P20813); assay: Inhibition of human CYP2B6; type: ADME
T5 sequence (P20813 whole entry): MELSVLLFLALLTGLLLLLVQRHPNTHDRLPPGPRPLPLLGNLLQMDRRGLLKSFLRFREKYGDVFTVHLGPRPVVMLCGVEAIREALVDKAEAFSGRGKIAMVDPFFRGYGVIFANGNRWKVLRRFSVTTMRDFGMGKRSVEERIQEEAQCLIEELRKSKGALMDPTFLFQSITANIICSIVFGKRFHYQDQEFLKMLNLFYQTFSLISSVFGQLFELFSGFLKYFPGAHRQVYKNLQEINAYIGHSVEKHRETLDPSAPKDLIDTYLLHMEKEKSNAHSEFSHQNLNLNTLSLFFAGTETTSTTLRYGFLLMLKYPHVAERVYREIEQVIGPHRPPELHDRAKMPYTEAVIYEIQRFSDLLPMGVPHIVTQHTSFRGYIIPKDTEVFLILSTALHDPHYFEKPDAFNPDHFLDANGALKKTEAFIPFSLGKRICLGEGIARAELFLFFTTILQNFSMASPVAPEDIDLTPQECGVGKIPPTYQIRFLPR

[18] = Stability in rat liver microsomes assessed as half life; type: ADME, Microsome
[19] = molecular target: hERG (Homo sapiens, UniProt Q12809); assay: (§1) Inhibition of hERG at 10 uM relative to control; type: toxicity
[20] = molecular target: T4, Cytochrome P450 2C19; assay: Inhibition of CYP2C19 (unknown origin); type: ADME
[21] = molecular target: T5, Cytochrome P450 2B6; assay: Inhibition of CYP2B6 (unknown origin); type: ADME
[22] = molecular target: Voltage-gated inwardly rectifying potassium channel KCNH2 (Homo sapiens, UniProt Q12809); assay: as §1; type: toxicity; settings: 10 µM
Sequence of Voltage-gated inwardly rectifying potassium channel KCNH2 (Q12809 whole entry): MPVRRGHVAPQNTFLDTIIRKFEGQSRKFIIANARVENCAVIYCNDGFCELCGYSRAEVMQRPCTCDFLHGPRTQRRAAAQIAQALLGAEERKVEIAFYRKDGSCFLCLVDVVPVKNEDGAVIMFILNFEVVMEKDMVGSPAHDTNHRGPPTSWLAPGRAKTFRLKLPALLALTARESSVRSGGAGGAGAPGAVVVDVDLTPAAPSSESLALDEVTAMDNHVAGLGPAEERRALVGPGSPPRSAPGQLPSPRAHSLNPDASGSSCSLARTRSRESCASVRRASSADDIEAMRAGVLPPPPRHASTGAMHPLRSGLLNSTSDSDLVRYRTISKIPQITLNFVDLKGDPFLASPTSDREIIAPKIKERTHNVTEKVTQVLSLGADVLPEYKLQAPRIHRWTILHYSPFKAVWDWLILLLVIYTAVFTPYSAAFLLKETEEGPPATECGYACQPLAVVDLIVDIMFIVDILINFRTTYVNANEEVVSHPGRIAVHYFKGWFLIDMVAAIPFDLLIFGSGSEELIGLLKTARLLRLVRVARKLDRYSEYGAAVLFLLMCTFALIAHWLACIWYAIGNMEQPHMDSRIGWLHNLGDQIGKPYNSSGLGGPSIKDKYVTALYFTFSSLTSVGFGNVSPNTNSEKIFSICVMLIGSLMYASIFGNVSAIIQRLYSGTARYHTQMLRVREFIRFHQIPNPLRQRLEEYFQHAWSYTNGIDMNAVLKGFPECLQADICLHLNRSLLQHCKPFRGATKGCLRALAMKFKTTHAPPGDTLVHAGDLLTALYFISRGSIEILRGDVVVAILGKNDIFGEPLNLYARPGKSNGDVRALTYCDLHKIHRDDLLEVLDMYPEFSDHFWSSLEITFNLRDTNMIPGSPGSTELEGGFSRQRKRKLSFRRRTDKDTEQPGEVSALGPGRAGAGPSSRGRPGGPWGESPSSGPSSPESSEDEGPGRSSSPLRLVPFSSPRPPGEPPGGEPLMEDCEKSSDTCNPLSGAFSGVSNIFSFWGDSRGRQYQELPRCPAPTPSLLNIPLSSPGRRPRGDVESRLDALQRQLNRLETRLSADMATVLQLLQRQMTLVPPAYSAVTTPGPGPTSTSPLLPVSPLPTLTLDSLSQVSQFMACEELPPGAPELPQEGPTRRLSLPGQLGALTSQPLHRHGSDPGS

T4 sequence (P33261 whole entry): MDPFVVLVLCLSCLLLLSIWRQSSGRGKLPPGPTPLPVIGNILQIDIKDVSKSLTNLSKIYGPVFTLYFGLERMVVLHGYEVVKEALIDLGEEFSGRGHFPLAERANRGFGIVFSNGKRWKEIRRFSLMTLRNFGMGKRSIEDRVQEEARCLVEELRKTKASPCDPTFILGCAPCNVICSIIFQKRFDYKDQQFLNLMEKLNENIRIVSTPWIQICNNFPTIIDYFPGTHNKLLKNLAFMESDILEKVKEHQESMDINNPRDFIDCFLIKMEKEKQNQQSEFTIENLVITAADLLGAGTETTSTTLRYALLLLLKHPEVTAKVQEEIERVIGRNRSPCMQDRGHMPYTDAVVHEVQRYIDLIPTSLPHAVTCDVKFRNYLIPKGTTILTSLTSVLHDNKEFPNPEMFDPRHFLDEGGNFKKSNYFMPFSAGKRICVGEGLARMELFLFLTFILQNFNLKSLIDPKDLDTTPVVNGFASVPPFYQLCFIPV
T3 sequence (P11712 whole entry): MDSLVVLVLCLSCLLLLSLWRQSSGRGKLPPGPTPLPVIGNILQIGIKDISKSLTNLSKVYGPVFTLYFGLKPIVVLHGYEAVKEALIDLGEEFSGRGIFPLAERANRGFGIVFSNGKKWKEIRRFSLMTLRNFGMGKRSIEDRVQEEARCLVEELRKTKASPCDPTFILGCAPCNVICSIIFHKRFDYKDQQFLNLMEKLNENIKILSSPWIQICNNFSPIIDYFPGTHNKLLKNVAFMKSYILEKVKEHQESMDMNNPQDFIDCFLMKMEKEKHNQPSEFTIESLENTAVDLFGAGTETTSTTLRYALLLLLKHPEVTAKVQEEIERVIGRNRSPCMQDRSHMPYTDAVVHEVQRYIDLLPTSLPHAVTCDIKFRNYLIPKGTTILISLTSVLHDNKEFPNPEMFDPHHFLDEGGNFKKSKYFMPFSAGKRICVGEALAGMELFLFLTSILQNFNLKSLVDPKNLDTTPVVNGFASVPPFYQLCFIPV
Sequence of Indoleamine 2,3-dioxygenase 1 (P14902 whole entry): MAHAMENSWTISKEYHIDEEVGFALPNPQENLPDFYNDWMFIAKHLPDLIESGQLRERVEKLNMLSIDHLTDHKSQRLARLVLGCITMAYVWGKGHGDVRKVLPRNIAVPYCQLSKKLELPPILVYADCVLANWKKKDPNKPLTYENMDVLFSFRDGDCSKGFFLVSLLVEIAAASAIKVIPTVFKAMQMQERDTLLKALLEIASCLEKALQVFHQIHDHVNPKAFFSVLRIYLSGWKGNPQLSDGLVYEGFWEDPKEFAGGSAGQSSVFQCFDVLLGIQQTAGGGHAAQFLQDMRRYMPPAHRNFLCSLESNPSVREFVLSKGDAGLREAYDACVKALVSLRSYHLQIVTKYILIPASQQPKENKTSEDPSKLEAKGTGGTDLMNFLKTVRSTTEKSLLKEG
Sequence of Tryptophan 2,3-dioxygenase (P48775 whole entry): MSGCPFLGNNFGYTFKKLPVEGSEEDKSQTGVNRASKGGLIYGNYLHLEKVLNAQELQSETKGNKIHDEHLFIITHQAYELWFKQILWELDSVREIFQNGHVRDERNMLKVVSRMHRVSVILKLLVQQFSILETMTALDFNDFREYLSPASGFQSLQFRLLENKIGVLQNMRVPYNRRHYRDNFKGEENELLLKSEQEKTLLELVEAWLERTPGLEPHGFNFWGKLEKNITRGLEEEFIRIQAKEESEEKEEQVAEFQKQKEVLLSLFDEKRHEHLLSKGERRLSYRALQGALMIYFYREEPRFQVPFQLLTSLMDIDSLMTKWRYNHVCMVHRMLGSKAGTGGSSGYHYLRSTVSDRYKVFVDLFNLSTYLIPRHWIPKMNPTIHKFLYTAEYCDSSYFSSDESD
Sequence of Cytochrome P450 2D6 (P10635 whole entry): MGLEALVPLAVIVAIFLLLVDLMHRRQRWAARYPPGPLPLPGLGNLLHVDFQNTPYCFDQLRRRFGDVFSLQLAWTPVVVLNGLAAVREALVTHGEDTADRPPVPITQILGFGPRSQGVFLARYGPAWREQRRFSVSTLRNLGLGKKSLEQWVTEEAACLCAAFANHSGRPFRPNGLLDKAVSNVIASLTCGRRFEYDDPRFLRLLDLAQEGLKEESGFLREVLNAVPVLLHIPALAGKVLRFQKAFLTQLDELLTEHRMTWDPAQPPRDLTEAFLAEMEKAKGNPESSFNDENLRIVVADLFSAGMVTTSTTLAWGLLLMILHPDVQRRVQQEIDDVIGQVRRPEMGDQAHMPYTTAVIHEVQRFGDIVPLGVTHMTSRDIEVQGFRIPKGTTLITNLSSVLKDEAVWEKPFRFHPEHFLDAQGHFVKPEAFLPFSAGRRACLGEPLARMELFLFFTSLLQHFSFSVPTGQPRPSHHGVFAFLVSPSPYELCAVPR
Sequence of hERG (Q12809 whole entry): as the sequence (Q12809 whole entry) above

| pIC50 [1] | half-life [2] | pIC50 [3] | pIC50 [4] | half-life [5] | remaining at 10 min, 0.5 µM [6] | half-life [7] | pIC50 [8] | pIC50 [9] | remaining at 10 min, 0.5 µM [10] | pIC50 [11] | pIC50 [12] | pIC50 [13] | half-life [14] | pIC50 [15] | remaining at 10 min, 0.5 µM [16] | pIC50 [17] | half-life [18] | Stability [6] | Structure (SMILES) | inhibition at 10 µM [19] | other results |
| --- | --- | --- | --- | --- | --- | --- | --- | --- | --- | --- | --- | --- | --- | --- | --- | --- | --- | --- | --- | --- | --- |
| 5.11 | 11 min | 4.74 | < 5.12 | 4 min | 60% | 9.1 min | 5.04 | 5.02 | 37% | 5.57 | 5.57 | 5.06 | 6.6 min | 8.15 | 33% | 4.72 | 22 min | – | Cc1ccc(NC(=O)Nc2cc(-c3ccccc3-c3nnn[nH]3)ccc2N(CC(C)C)CC(C)C)cc1 | – | – |
| 5.08 | 22 min | < 4.70 | < 5.22 | 7.4 min | 92% | 18 min | 4.74 | < 4.70 | 70% | 5.43 | 5.43 | 5.17 | 25 min | 8.44 | 84% | 4.77 | 54 min | – | Cc1ccc(NC(=O)Nc2cc(-c3ccccc3-c3nn[nH]n3)cc3c2OCCCC3c2ccccc2)cc1 (stereo in doubt; 21) | 41% | – |
| – | – | – | < 5.22 | – | – | – | – | – | 72% | – | – | – | – | 8.82 | 56% | – | – | 61% | Cc1ccc(NC(=O)Nc2cc(-c3ccccc3-c3nc(=O)[nH]o3)cc3c2OCCCC3c2ccccc2)cc1 (stereo in doubt; 19) | 12% | pIC50 [20]: 5.92 |
| – | – | – | – | – | – | – | – | – | – | – | – | – | – | 8.34 | – | – | – | 38% | Cc1ccc(NC(=O)Nc2cc(-c3ccccc3-c3nc(=O)[nH]o3)cc3c2OCCCC3c2ccccc2)cc1 (stereo in doubt; 20) | – | pIC50 [21]: 6.11; pIC50 ([4]; hek): < 5.22; Stability [10]: 73%; inhibition (INH) [22]: 18%; Stability [16]: 40% |
| – | – | – | – | – | – | – | – | – | – | 5.17 | – | – | – | 7.82 | – | – | – | 96% | Cc1ccc(NC(=O)Nc2cc(-c3ccccc3-c3nn[nH]n3)cc3c2OCCCC3c2ccccc2)cc1 (stereo in doubt; 22) | – | pIC50 ([4]; hek): < 5.22; Stability [10]: 72%; inhibition (INH) [22]: 53%; Stability [16]: 100% |
